Drawing on the supplement of paper PMC4862054, this text covers normalised viability for 20 molecules.

What all share (experiment): normalised viability (% of control), CellTiter-Blue; higher = more viable cells (about 100 = DMSO control)
Common to all, as to conditions: incubation time: 72 h

The test system of experiment [1] is DU-4475. Here is the method:
(§1)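 DSRT, CellTiter-Blue viability, 72 h incubation. Signal is normalised to DMSO and benzethonium chloride controls. Value is the normalised response at dose 6.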

Experiment [2] deals with CAL-85-1. Here is the method: as §1
Experiment [3] deals with MDA-MB-453. As for the experimental part:
as §1

In experiment [4] the test system is CAL-51. Here is the method: as §1
Experiment [5] deals with HDQ-P1. Here is the method:
as §1

The subject of experiment [6] is CAL-148. As for the experimental part:
as §1

The subject of experiment [7] is DU-4475. As for the experimental part:
(§2)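 DSRT, CellTiter-Blue viability, 72 h incubation. Signal is normalised to DMSO and benzethonium chloride controls. Value is the normalised response at dose 9.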
The source holds these as a separate data set.

Experiment [8] concerns CAL-85-1. As for the experimental part: as §2
This is another data set of the same source.

Experiment [9] relates to MDA-MB-453. Here is the method:
as §2
This is another data set of the same source.

For experiment [10], the system named is CAL-51. Here is the method:
as §2
The source holds these as a separate data set.

Experiment [11] relates to CAL-148. Here is the method: as §2
This is another data set of the same source.

In experiment [12] the test system is DU-4475. Here is the method:
(§3)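 DSRT, CellTiter-Blue viability, 72 h incubation. Signal is normalised to DMSO and benzethonium chloride controls. Value is the normalised response at dose 8.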
This is another data set of the same source.

The subject of experiment [13] is CAL-85-1. As for the experimental part:
as §3
The source holds these as a separate data set.

Experiment [14] relates to MDA-MB-453. As for the experimental part: as §3
The source holds these as a separate data set.

Experiment [15] relates to CAL-51. Here is the method: as §3
This is another data set of the same source.

For experiment [16], the system named is HDQ-P1. As for the experimental part: as §3
The source holds these as a separate data set.

Experiment [17] deals with CAL-148. As for the experimental part:
as §3
The source holds these as a separate data set.

Molecules are shown by their SMILES. Several values for one entry are separate records, joined by “and”; a condition that tells them apart may be missing. Identical values can stand only once.

Regarding `COc1ncc(-c2ccc3nccc(-c4ccnnc4)c3c2)cc1NS(=O)(=O)c1ccc(F)cc1F` (30 nM), the normalised viability was 63.6% in the experiment with DU-4475 [1]; 50.4% with CAL-85-1 [2]; 12.1% in the experiment with MDA-MB-453 [3]; 33.1% in the experiment with CAL-51 [4]; 30.4% in the experiment with HDQ-P1 [5]; 43.7% in the experiment with CAL-148 [6].

As to `Cn1cnc2c(F)c(Nc3ccc(Br)cc3F)c(C(=O)NOCCO)cc21` [MEK-162] (30 nM), the normalised viability in the experiment on DU-4475 [1] was 61.2%; in the experiment on CAL-85-1 [2], 101%; with MDA-MB-453 [3], 118%; in the experiment with CAL-51 [4] it was 96.5%; in the experiment with HDQ-P1 [5], 47.6%; in the experiment on CAL-148 [6] it was 95.1%.

With `O=P(O)(NCCCl)NCCCl` [Ifosfamide mustard] (300 nM), the normalised viability in the experiment on DU-4475 [1] came to 92.7%; with CAL-85-1 [2], 98%; in the experiment with MDA-MB-453 [3], 114%; in the experiment with CAL-51 [4], 100%; in the experiment on HDQ-P1 [5] it was 54%; with CAL-148 [6], 110%.

As to `C#Cc1cccc(Nc2ncnc3cc(OC)c(OCCCCCCC(=O)NO)cc23)c1` [CUDC-101] (300 nM), the normalised viability with DU-4475 [1] is 75.1%; with CAL-85-1 [2] it was 64.1%; in the experiment on MDA-MB-453 [3] it was 46%; in the experiment with CAL-51 [4] it was 105%; with HDQ-P1 [5], 38.8%; in the experiment with CAL-148 [6], 81.9%.

For the molecule `Cn1c(=O)c(F)c(Nc2ccc(I)cc2F)c2c(=O)n(C[C@@H](O)CO)cnc21` [TAK-733] (30 nM), the normalised viability in the experiment with DU-4475 [1] came to 1.81%; with CAL-85-1 [2], 84.5%; in the experiment with MDA-MB-453 [3], 112%; in the experiment on CAL-51 [4] it was 89.7%; in the experiment on HDQ-P1 [5], 77.7%; with CAL-148 [6], 98.7%.

Turning to `COc1cc(Nc2ncc(F)c(Nc3ccc4c(n3)NC(=O)C(C)(C)O4)n2)cc(OC)c1OC` [R406] (300 nM), the normalised viability with DU-4475 [1] turned out to be 87.5%; in the experiment on CAL-85-1 [2] it was 98.3%; with MDA-MB-453 [3], 109%; in the experiment on CAL-51 [4], 114%; in the experiment on HDQ-P1 [5], 102%; with CAL-148 [6] it was 108%.

Take `CS(=O)(=O)OCCCCOS(C)(=O)=O` [Busulfan] (3000 nM): the normalised viability in the experiment with DU-4475 [1] came out at 76%; with CAL-85-1 [2] it was 106%; in the experiment with MDA-MB-453 [3] it was 99.9%; in the experiment on CAL-51 [4] it was 92.8%; in the experiment on HDQ-P1 [5], 83%; with CAL-148 [6] it was 114%.

In the case of `O=C(c1ccc(OCCN2CCCCC2)cc1)c1c(-c2ccc(O)cc2)sc2cc(O)ccc12` [Raloxifene] (300 nM), the normalised viability with DU-4475 [1] stood at 114%; with CAL-85-1 [2], 105%; in the experiment on MDA-MB-453 [3] it was 102%; in the experiment with CAL-51 [4] it was 100%; with HDQ-P1 [5], 84.6%; in the experiment with CAL-148 [6], 102%.

On to `CS(=O)(=O)CCNCc1ccc(-c2ccc3ncnc(Nc4ccc(OCc5cccc(F)c5)c(Cl)c4)c3c2)o1` [Lapatinib] (10000 nM), for which the normalised viability with DU-4475 [7] is 117% and 99.2%; with CAL-85-1 [8], 30% and 39.3%; with MDA-MB-453 [9] it was 20.9% and 28.7%; with CAL-51 [10], 90% and 94.5%; in the experiment on CAL-148 [11], 60.4% and 65.6%.

On to `C[C@@H]1C=C2C(=O)O[C@@H]3CC[C@H](C1)[C@]23O` [Galiellalactone] (1500 nM), for which the normalised viability with DU-4475 [1] stood at 98.1%; in the experiment on CAL-85-1 [2], 100%; in the experiment on MDA-MB-453 [3] it was 103%; in the experiment with CAL-51 [4] it was 106%; with HDQ-P1 [5], 65.4%; in the experiment on CAL-148 [6] it was 138%.

In the case of `COc1cccc2c1C(=O)c1c(O)c3c(c(O)c1C2=O)C[C@@](O)(C(C)=O)C[C@@H]3O[C@H]1C[C@H](N)[C@H](O)[C@H](C)O1` [Daunorubicin] (30 nM), the normalised viability in the experiment with DU-4475 [1] was found to be 64.7%; in the experiment on CAL-85-1 [2], 94.6%; with MDA-MB-453 [3], 93.7%; with CAL-51 [4], 54.5%; with HDQ-P1 [5] it was 74.9%; with CAL-148 [6], 59.5%.

In the case of `C[C@@]1(C(=O)Nc2ccc(F)nc2)CCCN1c1nc(Nc2cc(C3CC3)n[nH]2)c2cccn2n1` (300 nM), the normalised viability in the experiment with DU-4475 [1] came to 77.7%; in the experiment on CAL-85-1 [2], 65.7%; in the experiment with MDA-MB-453 [3], 84.6%; with CAL-51 [4] it was 88.3%; in the experiment with HDQ-P1 [5], 50.3%; in the experiment on CAL-148 [6], 95.7%.

Take `CC(C)(C)c1cc(NC(=O)Nc2ccc(-c3cn4c(n3)sc3cc(OCCN5CCOCC5)ccc34)cc2)no1` [Quizartinib] (30 nM): the normalised viability came to 109% in the experiment on DU-4475 [1]; 97.2% in the experiment with CAL-85-1 [2]; 102% in the experiment with MDA-MB-453 [3]; 101% in the experiment on CAL-51 [4]; 53.4% with HDQ-P1 [5]; 103% in the experiment on CAL-148 [6].

`CCS(=O)(=O)c1cccc(-c2cc(C(=O)NC3CCN(C)CC3)c(C)c3[nH]c4ncc(C)cc4c23)c1` [TAK-901] (300 nM): the normalised viability with DU-4475 [12] was determined as 76.5%; in the experiment with CAL-85-1 [13], 53.2%; with MDA-MB-453 [14], 60%; with CAL-51 [15] it was 42.5%; with HDQ-P1 [16] it was 49.2%; in the experiment with CAL-148 [17], 74%.

With `COC1=C2C[C@@H](C)C[C@H](OC)[C@H](O)[C@@H](C)/C=C(\C)[C@H](OC(N)=O)[C@@H](OC)/C=C\C=C(/C)C(=O)NC(=CC1=O)C2=O` [Geldanamycin] (3000 nM), the normalised viability in the experiment on DU-4475 [12] is -0.3%; in the experiment on CAL-85-1 [13], 11.6%; with MDA-MB-453 [14], 8.03%; in the experiment with CAL-51 [15], 8.15%; in the experiment with HDQ-P1 [16], 16.7%; in the experiment on CAL-148 [17] it was 10.8%.

As for `C[C@@H]1C=C2C(=O)O[C@@H]3CC[C@H](C1)[C@]23O` [Galiellalactone] (15000 nM), the normalised viability was 126% in the experiment with DU-4475 [12]; 14.1% with CAL-85-1 [13]; 20.3% with MDA-MB-453 [14]; 124% with CAL-51 [15]; 75.3% in the experiment on HDQ-P1 [16]; 52.8% with CAL-148 [17].

As to `CC(C)(C)c1cc(NC(=O)Nc2ccc(-c3cn4c(n3)sc3cc(OCCN5CCOCC5)ccc34)cc2)no1` [Quizartinib] (300 nM), the normalised viability amounted to 98.5% with DU-4475 [12]; 106% with CAL-85-1 [13]; 110% in the experiment with MDA-MB-453 [14]; 102% in the experiment on CAL-51 [15]; 103% in the experiment with HDQ-P1 [16]; 102% in the experiment on CAL-148 [17].

Consider `CC(=O)O[C@H]1C(=O)[C@@]2(C)[C@H]([C@H](OC(=O)c3ccccc3)[C@]3(O)C[C@H](OC(=O)[C@H](O)[C@@H](NC(=O)c4ccccc4)c4ccccc4)C(C)=C1C3(C)C)[C@]1(OC(C)=O)CO[C@@H]1C[C@@H]2O` [Paclitaxel] (300 nM), for which the normalised viability in the experiment on DU-4475 [12] worked out at 16.9%; with CAL-85-1 [13] it was 25.5%; with MDA-MB-453 [14], 24.7%; in the experiment on CAL-51 [15] it was 20.6%; in the experiment with HDQ-P1 [16], 26.6%; in the experiment on CAL-148 [17], 16.1%.

For `CN1CCN(c2ccc3nc(-c4c(N)c5c(F)cccc5[nH]c4=O)[nH]c3c2)CC1` [Dovitinib] (3000 nM), the normalised viability came out at 87.9% in the experiment on DU-4475 [12]; 86.9% in the experiment with CAL-85-1 [13]; 93.4% in the experiment with MDA-MB-453 [14]; 109% with CAL-51 [15]; 87.4% in the experiment with HDQ-P1 [16]; 90.2% in the experiment with CAL-148 [17].

For the molecule `C[C@@]1(C(=O)Nc2ccc(F)nc2)CCCN1c1nc(Nc2cc(C3CC3)n[nH]2)c2cccn2n1` (3000 nM), the normalised viability was determined as 14.8% with DU-4475 [12]; 38.1% in the experiment with CAL-85-1 [13]; 65.4% in the experiment on MDA-MB-453 [14]; 31.4% in the experiment on CAL-51 [15]; 25.6% in the experiment on HDQ-P1 [16]; 42.9% with CAL-148 [17].
